Values belong to the compound of their own block, whether it stands above or below them. Active and inactive are the calls of the source. No cut-off for these calls is given here.
Columns and labels:
T47D = test: Antiproliferative activity against estrogen-dependent human T47D cells assessed as inhibition of cell proliferation measured after 72 hrs by MTT assay; type: functional, cell-based
MDA-MB-231 [1] = test: cells; conditions: Homo sapiens, MDA-MB-231, 23 h
[2] = molecular target: T1, Hepatocyte growth factor receptor (Homo sapiens, UniProt P08581); test: Inhibition of c-MET in human MDA-MB-231 cells assessed as downregulation of activated phosphorylated Akt level measured after 72 hrs in presence of HGF by immunoblot analysis; type: cell-based; conditions: dose 1-3 µM
[3] = molecular target: Macrophage-stimulating protein receptor (Homo sapiens) (UniProt Q04912); test: Inhibition of recombinant GST-tagged human RON (983 to 1440 residues) expressed in baculovirus expression system at 10 uM by TR-FRET assay relative to control
MDA-MB-231 [4] = test: Antitumor activity against GFP-tagged human MDA-MB-231 cells xenografted in athymic nude-Foxn1nu/Foxn1+ mouse assessed as the tumor volume at 10 mg/kg, ip dosed 3 times per week for 3 weeks treatment started 10 days of post inoculation by digital caliper method (reference value: 2048 mm3); type: functional
Mus musculus = test: Downregulation of phosphorylated c-Met level in tumor of athymic nude-Foxn1nu/Foxn1+ mouse xenografted with GFP-tagged human MDA-MB-231 cells at 10 mg/kg, ip dosed 3 times per week for 3 weeks treatment started 10 days of post inoculation by western blot analysis; type: functional, organism-based
[5] = molecular target: T1, Hepatocyte growth factor receptor; test: Inhibition of c-MET kinase domain (unknown origin) using Tyr6 peptide as substrate measured after 1 hr in presence of ATP by Z'-lyte kinase assay
MDA-MB-231 [6] = test: cells; conditions: Homo sapiens, MDA-MB-231, 24 h
MDA-MB-231 [7] = test: Antiproliferative activity against triple-negative human MDA-MB-231 cells overexpressing c-Met assessed as inhibition of cell proliferation measured after 72 hrs by MTT assay; type: functional, cell-based; conditions: MDA-MB-231, 72 h
[8] = molecular target: Tyrosine-protein kinase ABL1 (Homo sapiens) (UniProt P00519); test: Inhibition of recombinant full length His-tagged human ABL1 expressed in baculovirus expression system at 10 uM by TR-FRET assay relative to control
MDA-MB-231 [9] = test: Cytotoxicity against human MDA-MB-231 cells assessed as induction of necrotic cell death by measuring LDH release at 0.5 to 8 uM measured after 24 hrs by LDH release assay; type: functional, cell-based; conditions: dose 0.5-8 µM
[10] = molecular target: T1, Hepatocyte growth factor receptor; test: Inhibition of c-MET in human MDA-MB-231 cells assessed as downregulation of activated phosphorylated mTOR level measured after 72 hrs in presence of HGF by immunoblot analysis; type: cell-based; conditions: dose 1-3 µM
[11] = molecular target: Epidermal growth factor receptor (Homo sapiens) (UniProt P00533); test: Inhibition of recombinant GST-tagged human EGFR (668 to 1210 residues) expressed in baculovirus expression system at 10 uM by TR-FRET assay relative to control
[12] = Cytotoxicity against human MCF-10A cells assessed as reduction in cell viability at 15 uM measured after 24 hrs by MTT assay relative to control; type: cell-based; conditions: read-out: INH
MCF-10A = test: Cytotoxicity against human MCF-10A cells assessed as cell death at 1 to 15 uM measured after 24 hrs by MTT assay; type: cell-based; conditions: dose 1-15 µM
[13] = molecular target: T1, Hepatocyte growth factor receptor; test: Inhibition of c-MET in human MDA-MB-231 cells assessed as downregulation of activated phosphorylated FAK level measured after 72 hrs in presence of HGF by immunoblot analysis; type: cell-based; conditions: dose 1-3 µM
[14] = molecular target: T1, Hepatocyte growth factor receptor; test: Inhibition of c-MET in human MDA-MB-231 cells assessed as downregulation of activated phosphorylated MAPK level measured after 72 hrs in presence of HGF by immunoblot analysis; type: cell-based; conditions: dose 1-3 µM
[15] = molecular target: Insulin-like growth factor 1 receptor (Homo sapiens) (UniProt P08069); test: Inhibition of recombinant C-terminal His-tagged human IGF1R (960 to 1397 residues) expressed in baculovirus expression system at 10 uM by TR-FRET assay relative to control
[16] = molecular target: T1, Hepatocyte growth factor receptor; test: Inhibition of c-MET in human MDA-MB-231 cells assessed as downregulation of activated phosphorylated c-MET level at 1 to 3 uM measured after 72 hrs in presence of HGF by immunoblot analysis; type: cell-based; conditions: dose 1-3 µM
[17] = molecular target: Proto-oncogene tyrosine-protein kinase ROS (Homo sapiens) (UniProt P08922); test: Inhibition of recombinant GST-tagged human ROS1 (1883 to 2347 residues) expressed in baculovirus expression system at 10 uM by TR-FRET assay relative to control
[18] = molecular target: Fibroblast growth factor receptor 1 (Homo sapiens) (UniProt P11362); test: Inhibition of recombinant His-tagged human FGFR1 (308 to 731 residues) expressed in baculovirus expression system at 10 uM by TR-FRET assay relative to control
[19] = Toxicity in athymic nude-Foxn1nu/Foxn1+ mouse assessed as effect on body weight at 10 mg/kg, ip dosed 3 times per week for 3 weeks treatment started 10 days of post inoculation; type: organism-based; conditions: in vivo, 504 h
MDA-MB-231 [20] = test: Antitumor activity against GFP-tagged human MDA-MB-231 cells xenografted in athymic nude-Foxn1nu/Foxn1+ mouse assessed as the reduction in tumor growth at 10 mg/kg, ip dosed 3 times per week for 3 weeks treatment started 10 days of post inoculation digital caliper method relative to control; type: functional; conditions: MDA-MB-231, ip, 504 h, read-out: TGI
MDA-MB-468 = test: Antiproliferative activity against triple-negative human MDA-MB-468 cells overexpressing c-Met assessed as inhibition of cell proliferation measured after 72 hrs by MTT assay; type: functional, cell-based; conditions: MDA-MB-468, 72 h
[21] = molecular target: ALK tyrosine kinase receptor (Homo sapiens) (UniProt Q9UM73); test: Inhibition of recombinant GST-tagged human ALK (1058 to 1620 residues) expressed in baculovirus expression system at 10 uM by TR-FRET assay relative to control
MCF7 = test: Antiproliferative activity against estrogen-dependent human MCF7 cells assessed as inhibition of cell proliferation measured after 72 hrs by MTT assay; type: functional, cell-based; conditions: MCF7, 72 h
SK-BR-3 = test: Antiproliferative activity against ER-deficient human SK-BR-3 cells overexpressing HER2 assessed as inhibition of cell proliferation measured after 72 hrs by MTT assay; type: functional, cell-based; conditions: SK-BR-3, 72 h
MDA-MB-231 [22] = test: Antiinvasive activity against human MDA-MB-231 cells overexpressing c-Met assessed as inhibition of cell invasion at 2 uM measured after 24 hrs by Calcein AM dye based fluorescence assay; type: functional
[23] = molecular target: Receptor tyrosine-protein kinase erbB-2 (Homo sapiens) (UniProt P04626); test: Inhibition of recombinant His-tagged human Erbb2 (676 to 1255 residues) expressed in baculovirus expression system at 10 uM by TR-FRET assay relative to control
[24] = molecular target: Tyrosine-protein kinase receptor UFO (Homo sapiens) (UniProt P30530); test: Inhibition of recombinant His-tagged human AXL (473 to end residues) expressed in insect cells at 10 uM by TR-FRET assay relative to control
[25] = molecular target: T1, Hepatocyte growth factor receptor; test: Inhibition of recombinant N-terminal His-tagged human MET (956 to 1390 residues) expressed in baculovirus expression system at 10 uM by TR-FRET assay relative to control
BT-474 = test: Antiproliferative activity against ER-positive human BT-474 cells overexpressing HER2 assessed as inhibition of cell proliferation measured after 72 hrs by MTT assay; type: functional, cell-based; conditions: BT-474, 72 h
[26] = molecular target: T1, Hepatocyte growth factor receptor; test: Inhibition of c-MET in human MDA-MB-231 cells assessed as downregulation of activated phosphorylated paxillin level measured after 72 hrs in presence of HGF by immunoblot analysis; type: cell-based; conditions: dose 1-3 µM

T1 sequence (P08581 whole entry, the tested form may be a part): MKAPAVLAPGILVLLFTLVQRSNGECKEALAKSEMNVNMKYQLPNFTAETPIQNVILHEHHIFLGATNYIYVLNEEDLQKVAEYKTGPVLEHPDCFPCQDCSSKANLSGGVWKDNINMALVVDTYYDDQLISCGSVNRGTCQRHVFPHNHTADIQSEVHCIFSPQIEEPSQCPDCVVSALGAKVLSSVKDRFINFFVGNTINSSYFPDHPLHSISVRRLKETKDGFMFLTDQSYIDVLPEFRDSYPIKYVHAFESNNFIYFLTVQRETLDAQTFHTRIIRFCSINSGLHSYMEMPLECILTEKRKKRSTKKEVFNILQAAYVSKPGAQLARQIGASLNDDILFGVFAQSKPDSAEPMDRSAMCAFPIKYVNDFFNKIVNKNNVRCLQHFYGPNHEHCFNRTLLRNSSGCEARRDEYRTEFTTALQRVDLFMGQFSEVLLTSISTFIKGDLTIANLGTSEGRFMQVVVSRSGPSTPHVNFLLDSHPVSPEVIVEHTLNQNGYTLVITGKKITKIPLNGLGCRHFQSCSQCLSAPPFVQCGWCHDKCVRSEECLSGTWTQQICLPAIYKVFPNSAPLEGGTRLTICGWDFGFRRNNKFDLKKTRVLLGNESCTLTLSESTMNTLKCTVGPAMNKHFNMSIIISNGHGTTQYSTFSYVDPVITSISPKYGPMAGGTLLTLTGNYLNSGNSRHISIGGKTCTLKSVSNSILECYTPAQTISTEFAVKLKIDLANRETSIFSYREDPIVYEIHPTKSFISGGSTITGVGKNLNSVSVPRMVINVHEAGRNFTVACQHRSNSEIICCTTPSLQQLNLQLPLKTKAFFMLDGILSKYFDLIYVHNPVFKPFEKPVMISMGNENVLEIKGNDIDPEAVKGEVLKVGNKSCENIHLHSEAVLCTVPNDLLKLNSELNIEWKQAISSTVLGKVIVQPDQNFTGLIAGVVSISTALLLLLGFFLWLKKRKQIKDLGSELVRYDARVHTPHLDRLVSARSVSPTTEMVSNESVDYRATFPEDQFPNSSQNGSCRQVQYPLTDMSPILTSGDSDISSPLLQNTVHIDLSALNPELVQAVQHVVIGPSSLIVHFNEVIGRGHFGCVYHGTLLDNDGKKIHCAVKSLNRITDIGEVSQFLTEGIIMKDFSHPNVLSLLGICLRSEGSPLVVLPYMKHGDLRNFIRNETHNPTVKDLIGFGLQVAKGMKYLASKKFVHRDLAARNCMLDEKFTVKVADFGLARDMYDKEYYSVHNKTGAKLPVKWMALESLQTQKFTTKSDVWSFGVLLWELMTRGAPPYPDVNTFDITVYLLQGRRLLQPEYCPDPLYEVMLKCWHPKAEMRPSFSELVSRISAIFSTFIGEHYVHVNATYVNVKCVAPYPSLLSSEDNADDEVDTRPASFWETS
Chain of Insulin-like growth factor 1 receptor (Homo sapiens) (P08069 31-736 limits assumed): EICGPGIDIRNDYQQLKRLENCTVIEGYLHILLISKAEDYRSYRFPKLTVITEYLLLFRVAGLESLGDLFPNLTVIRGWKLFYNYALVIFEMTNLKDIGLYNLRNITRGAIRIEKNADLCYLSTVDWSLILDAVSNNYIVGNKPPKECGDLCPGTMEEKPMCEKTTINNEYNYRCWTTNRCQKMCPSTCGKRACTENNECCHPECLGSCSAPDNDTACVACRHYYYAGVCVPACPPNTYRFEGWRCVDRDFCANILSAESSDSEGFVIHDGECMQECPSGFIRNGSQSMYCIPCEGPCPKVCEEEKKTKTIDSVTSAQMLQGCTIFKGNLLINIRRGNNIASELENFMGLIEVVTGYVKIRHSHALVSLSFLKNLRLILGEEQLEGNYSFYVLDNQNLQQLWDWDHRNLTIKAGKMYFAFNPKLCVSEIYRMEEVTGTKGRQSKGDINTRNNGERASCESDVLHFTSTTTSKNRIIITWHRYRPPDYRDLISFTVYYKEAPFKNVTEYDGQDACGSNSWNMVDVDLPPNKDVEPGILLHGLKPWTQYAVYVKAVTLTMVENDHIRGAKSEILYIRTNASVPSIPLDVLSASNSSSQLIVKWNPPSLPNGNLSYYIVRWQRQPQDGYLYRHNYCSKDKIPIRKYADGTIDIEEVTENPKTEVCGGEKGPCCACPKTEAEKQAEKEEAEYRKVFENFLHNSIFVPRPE
Chain of Insulin-like growth factor 1 receptor (Homo sapiens) (P08069 741-1367 limits assumed): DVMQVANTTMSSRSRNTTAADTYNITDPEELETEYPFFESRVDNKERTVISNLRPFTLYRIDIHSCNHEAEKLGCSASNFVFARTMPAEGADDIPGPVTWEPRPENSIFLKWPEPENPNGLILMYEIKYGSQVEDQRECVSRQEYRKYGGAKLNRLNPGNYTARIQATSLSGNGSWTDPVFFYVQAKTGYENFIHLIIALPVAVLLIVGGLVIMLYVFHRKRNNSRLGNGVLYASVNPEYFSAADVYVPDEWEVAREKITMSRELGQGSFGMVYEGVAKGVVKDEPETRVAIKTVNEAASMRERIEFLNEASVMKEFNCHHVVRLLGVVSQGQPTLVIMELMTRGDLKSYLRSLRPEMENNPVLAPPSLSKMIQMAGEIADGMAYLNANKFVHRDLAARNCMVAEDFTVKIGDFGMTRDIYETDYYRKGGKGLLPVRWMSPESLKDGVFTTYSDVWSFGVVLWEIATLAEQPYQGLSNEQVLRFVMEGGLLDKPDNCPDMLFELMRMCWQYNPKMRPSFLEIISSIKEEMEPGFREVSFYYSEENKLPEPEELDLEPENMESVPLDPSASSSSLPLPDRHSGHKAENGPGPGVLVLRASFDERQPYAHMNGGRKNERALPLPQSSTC
Chain of Fibroblast growth factor receptor 1 (Homo sapiens) (P11362 22-822 limits assumed): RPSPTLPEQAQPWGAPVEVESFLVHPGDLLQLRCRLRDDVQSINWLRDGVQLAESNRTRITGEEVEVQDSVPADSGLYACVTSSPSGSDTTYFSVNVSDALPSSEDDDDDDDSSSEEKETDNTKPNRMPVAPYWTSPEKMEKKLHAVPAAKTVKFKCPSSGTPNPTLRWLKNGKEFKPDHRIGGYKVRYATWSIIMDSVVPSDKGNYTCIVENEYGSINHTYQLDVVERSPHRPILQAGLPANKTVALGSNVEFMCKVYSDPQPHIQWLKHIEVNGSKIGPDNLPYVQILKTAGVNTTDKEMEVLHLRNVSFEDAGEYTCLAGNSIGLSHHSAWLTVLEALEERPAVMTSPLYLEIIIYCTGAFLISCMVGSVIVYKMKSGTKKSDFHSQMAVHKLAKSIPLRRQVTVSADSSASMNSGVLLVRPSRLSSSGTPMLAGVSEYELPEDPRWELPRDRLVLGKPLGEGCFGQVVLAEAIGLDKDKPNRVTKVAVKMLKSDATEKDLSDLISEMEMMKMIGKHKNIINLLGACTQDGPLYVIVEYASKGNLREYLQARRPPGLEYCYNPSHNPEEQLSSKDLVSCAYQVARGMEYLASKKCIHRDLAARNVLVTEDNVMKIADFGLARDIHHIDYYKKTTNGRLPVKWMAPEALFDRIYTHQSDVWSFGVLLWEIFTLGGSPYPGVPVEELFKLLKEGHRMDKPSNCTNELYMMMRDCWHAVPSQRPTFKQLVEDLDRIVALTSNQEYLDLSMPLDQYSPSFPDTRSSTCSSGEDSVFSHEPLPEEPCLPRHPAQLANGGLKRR
Chain of Tyrosine-protein kinase receptor UFO (Homo sapiens) (P30530 whole entry, the tested form may be a part): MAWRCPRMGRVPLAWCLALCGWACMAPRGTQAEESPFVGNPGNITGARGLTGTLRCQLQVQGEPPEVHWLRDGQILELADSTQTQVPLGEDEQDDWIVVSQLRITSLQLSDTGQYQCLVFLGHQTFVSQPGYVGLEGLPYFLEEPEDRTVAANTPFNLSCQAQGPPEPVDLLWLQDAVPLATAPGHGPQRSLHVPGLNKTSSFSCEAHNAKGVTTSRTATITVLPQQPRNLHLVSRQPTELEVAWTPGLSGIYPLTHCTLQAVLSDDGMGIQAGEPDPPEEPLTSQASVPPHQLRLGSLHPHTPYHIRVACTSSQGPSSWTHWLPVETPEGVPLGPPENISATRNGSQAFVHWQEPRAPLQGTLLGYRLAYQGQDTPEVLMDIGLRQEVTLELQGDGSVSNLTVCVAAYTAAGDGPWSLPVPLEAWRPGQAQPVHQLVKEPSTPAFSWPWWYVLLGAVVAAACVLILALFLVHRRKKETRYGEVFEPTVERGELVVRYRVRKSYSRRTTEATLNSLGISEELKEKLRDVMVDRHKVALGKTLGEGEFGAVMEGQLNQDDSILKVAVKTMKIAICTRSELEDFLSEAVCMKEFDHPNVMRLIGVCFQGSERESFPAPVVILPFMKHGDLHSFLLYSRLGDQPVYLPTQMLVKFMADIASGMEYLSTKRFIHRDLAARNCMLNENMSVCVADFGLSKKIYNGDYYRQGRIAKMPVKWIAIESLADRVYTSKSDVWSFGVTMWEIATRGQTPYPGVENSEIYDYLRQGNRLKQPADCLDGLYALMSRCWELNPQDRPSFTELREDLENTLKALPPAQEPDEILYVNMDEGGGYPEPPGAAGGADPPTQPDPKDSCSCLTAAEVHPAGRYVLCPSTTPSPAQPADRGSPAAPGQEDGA

Structure (SMILES): C/C1=C\[C@H](OC(=O)Nc2cc(C(F)(F)F)cc(C(F)(F)F)c2)C[C@](C)(O)/C=C/[C@H](C(C)C)CC/C(C)=C/CC1
IC50 (T47D): 11.2 µM | IC50 (MDA-MB-231 [1]): 1.4 µM | inhibition [2]: Dose-dependent effect | inhibition [3]: 31% | Activity (MDA-MB-231 [4]): 716 mm3 | inhibition (Mus musculus): Active | IC50 [5]: 1.1 µM | inhibition [5]: Dose-dependent effect | IC50 (MDA-MB-231 [6]): 1.7 µM | IC50 (MDA-MB-231 [7]): 1.3 µM | inhibition [8]: 31% | Activity (MDA-MB-231 [9]): Active | inhibition [10]: Dose-dependent effect | inhibition [11]: 9% | cytotoxicity at 24 h, 15 µM [12]: 8.3% | Activity (MCF-10A): Non-Toxic | inhibition [13]: Dose-dependent effect | inhibition [14]: Dose-dependent effect | inhibition [15]: 30% | inhibition [16]: Dose-dependent effect | inhibition [17]: 3% | inhibition [18]: 49% | Activity [19]: Non-Toxic | inhibition in vivo at 10 mg/kg (MDA-MB-231 [20]): 66.7% | IC50 (MDA-MB-468): 2.1 µM | inhibition [21]: 10% | IC50 (MCF7): 7.2 µM | IC50 (SK-BR-3): 4.7 µM | Activity (MDA-MB-231 [22]): Active | inhibition [23]: 22% | inhibition [24]: 11% | inhibition [25]: 84% | IC50 (BT-474): 3.9 µM | inhibition [26]: Dose-dependent effect

Structure (SMILES): C/C1=C\[C@H](OC(=O)Nc2cccc(Cl)c2)C[C@](C)(O)/C=C/[C@H](C(C)C)CC/C(C)=C/CC1
IC50 [5]: 3.4 µM | IC50 (MDA-MB-231 [7]): 9.1 µM | IC50 (MDA-MB-468): 10.6 µM

Structure (SMILES): C/C1=C\[C@H](OC(=O)Nc2ccccc2F)C[C@](C)(O)/C=C/[C@H](C(C)C)CC/C(C)=C/CC1
IC50 (MDA-MB-231 [7]): 16.1 µM | IC50 (MDA-MB-468): 17.8 µM

Structure (SMILES): C/C1=C\[C@H](OC(=O)Nc2ccc(Cl)cc2)C[C@](C)(O)/C=C/[C@H](C(C)C)CC/C(C)=C/CC1
IC50 (MDA-MB-231 [7]): 13.4 µM | IC50 (MDA-MB-468): 12.8 µM

Structure (SMILES): C/C1=C\[C@H](OC(=O)Nc2ccccc2)C[C@](C)(O)/C=C/[C@H](C(C)C)CC/C(C)=C/CC1
IC50 (MDA-MB-231 [7]): 19.8 µM | IC50 (MDA-MB-468): 22.7 µM

Structure (SMILES): C/C1=C\[C@H](OC(=O)Nc2c(Cl)cccc2Cl)C[C@](C)(O)/C=C/[C@H](C(C)C)CC/C(C)=C/CC1
IC50 (MDA-MB-231 [7]): 10.8 µM | IC50 (MDA-MB-468): 12.3 µM

Second part, the compound after the results:

IC50 (MDA-MB-231 [7]): > 50 µM | IC50 (MDA-MB-468): > 50 µM
Structure (SMILES): C/C1=C\[C@H](OC(=O)Nc2ccc(-c3ccccc3)cc2)C[C@](C)(O)/C=C/[C@H](C(C)C)CC/C(C)=C/CC1

IC50 (MDA-MB-231 [7]): 10.4 µM | IC50 (MDA-MB-468): 15.4 µM
Structure (SMILES): C/C1=C\[C@H](OC(=O)Nc2ccc(Cl)cc2Cl)C[C@](C)(O)/C=C/[C@H](C(C)C)CC/C(C)=C/CC1

IC50 (MDA-MB-231 [7]): 27.6 µM | IC50 (MDA-MB-468): 27.9 µM
Structure (SMILES): C/C1=C\[C@H](OC(=O)Nc2cccc(C)c2)C[C@](C)(O)/C=C/[C@H](C(C)C)CC/C(C)=C/CC1

IC50 (MDA-MB-231 [7]): 13.7 µM | IC50 (MDA-MB-468): 14.5 µM
Structure (SMILES): C/C1=C\[C@H](OC(=O)Nc2ccccc2Cl)C[C@](C)(O)/C=C/[C@H](C(C)C)CC/C(C)=C/CC1

Source: ChEMBL document CHEMBL4715771 (Bioorg Med Chem, 2016)
